The test deals with B-Raf (V600E)-kinase (Homo sapiens (Human), UniProt P15056, V600E). Nature of the test: Kinase test B-RAF (V600E). In kind it is biochemical. As to conditions: B-RAF (V600E) kinase test, 250 μM ATP. In outline:
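B-Raf (V600E) (0.5 ng) preincubated with compound 24 h at RT (5% DMSO), then reacted 60 min at RT with 250 μM ATP and biotinylated MEK1 as substrate. Phospho-MEK (Ser217/221) captured on streptavidin and detected by europium time-resolved fluorescence; IC50 from dose-response curves.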

B-Raf (V600E)-kinase, sequence (P15056 whole entry V600E): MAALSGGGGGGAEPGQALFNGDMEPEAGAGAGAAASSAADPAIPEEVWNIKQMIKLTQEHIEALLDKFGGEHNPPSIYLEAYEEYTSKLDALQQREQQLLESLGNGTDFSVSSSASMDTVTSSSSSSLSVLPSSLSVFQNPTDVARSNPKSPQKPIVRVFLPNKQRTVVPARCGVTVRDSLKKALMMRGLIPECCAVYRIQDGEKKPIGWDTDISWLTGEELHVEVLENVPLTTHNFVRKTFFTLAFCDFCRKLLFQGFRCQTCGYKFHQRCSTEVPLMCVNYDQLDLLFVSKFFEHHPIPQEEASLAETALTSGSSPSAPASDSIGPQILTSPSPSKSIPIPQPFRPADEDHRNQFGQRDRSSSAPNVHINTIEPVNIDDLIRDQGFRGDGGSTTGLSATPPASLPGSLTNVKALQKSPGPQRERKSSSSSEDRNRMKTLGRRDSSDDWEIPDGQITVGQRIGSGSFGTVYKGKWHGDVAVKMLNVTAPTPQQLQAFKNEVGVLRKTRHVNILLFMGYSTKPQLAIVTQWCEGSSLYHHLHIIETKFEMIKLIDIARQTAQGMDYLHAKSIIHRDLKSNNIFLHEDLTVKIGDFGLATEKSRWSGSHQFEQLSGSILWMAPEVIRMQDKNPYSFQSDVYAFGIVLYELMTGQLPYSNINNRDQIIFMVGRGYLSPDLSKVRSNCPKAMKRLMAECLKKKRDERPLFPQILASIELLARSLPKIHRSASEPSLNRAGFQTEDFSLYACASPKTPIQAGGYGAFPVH

Usually IC50 stands for the concentration that inhibits the measured activity by half. High values mean lower potency, low ones higher potency. The compound `Cc1ccc(C(=O)Nc2ccc(C#N)c(C(F)(F)F)c2)cc1Nc1ncnc2cnc(N3CCCCC3)nc12` [III-333] had a concentration for half-maximal inhibition (IC50) of 56 nM. In turn, `Cc1ccc(C(=O)Nc2cccc(S(=O)(=O)N(C)C)c2)cc1Nc1ncnc2cnc(N3CCCCC3)nc12` [III-334] registered an IC50 of 10 nM. As to `Cc1ccc(C(=O)Nc2cc(C(F)(F)F)ccn2)cc1Nc1ncnc2cnc(N3CCCCC3)nc12` [III-335], inhibition was half-maximal at 8 nM (IC50). The IC50 values of the last two compounds are within 1.5-fold of each other. On to `Cc1ccc(C(=O)NCc2cccc(C(C)(C)C)c2)cc1Nc1ncnc2cnc(N3CCCN(C)CC3)nc12` [III-336], for which the IC50 was 140 nM. For the compound `Cc1ccc(C(=O)Nc2ccc(Cl)c(C(F)(F)F)c2)cc1Nc1ncnc2cnc(N3CCOCC3)nc12` [III-337], half-maximal inhibition (IC50) was put at 2 nM.

`COc1c(NC(=O)c2ccc(C)c(Nc3ncnc4cnc(N5CCCCC5)nc34)c2)cc(C(C)(C)C)cc1NS(C)(=O)=O` [III-338] displayed a half-maximal inhibitory concentration (IC50) of 41 nM. In the case of `Cc1ccc(C(=O)Nc2cccc(C(F)(F)F)c2)cc1Nc1ncnc2cnc(N3CCNCC3)nc12` [III-339] it was 1 nM.

As to `Cc1ccc(C(=O)Nc2ccc(C#N)c(C(F)(F)F)c2)cc1Nc1ncnc2cnc(N3CCOCC3)nc12` [III-340], the half-inhibitory concentration (IC50) was 4 nM.

In turn, `Cc1ccc(C(=O)Nc2cccc(C(C)(C)C)c2)cc1Nc1ncnc2cnc(N3CCNCC3)nc12` [III-341] came in with a 50% inhibitory concentration (IC50) of less than 1 nM. Under `Cc1ccc(C(=O)Nc2nnc(C(F)(F)F)s2)cc1Nc1ncnc2cnc(N3CCNCC3)nc12` [III-342] stands 2120 nM; under `COc1ccc(C(C)(C)C)cc1NC(=O)c1ccc(C)c(Nc2ncnc3cnc(N4CCNCC4)nc23)c1` [III-343], 2 nM; under `Cc1ccc(C(=O)Nc2cccc(S(=O)(=O)N(C)C)c2)cc1Nc1ncnc2cnc(N3CCNCC3)nc12` [III-344], 7 nM. Under `Cc1ccc(C(=O)Nc2cc(C(F)(F)F)ccn2)cc1Nc1ncnc2cnc(N3CC[C@H](F)C3)nc12` [III-345] stands 1 nM; under `COc1ccc(C(F)(F)F)cc1NC(=O)c1ccc(C)c(Nc2ncnc3cnc(NC4CCOC4)nc23)c1` (stereo not drawn) [III-347], 1 nM; under `Cc1ccc(C(=O)Nc2cc(C(C)(C)C)nn2C)cc1Nc1ncnc2cnc(NC3CCOC3)nc12` (stereo not drawn) [III-348], less than 1 nM.

On to `Cc1ccc(C(=O)Nc2cccc(C(F)(F)F)c2)cc1Nc1ncnc2cnc(NC3CCOC3)nc12` (stereo not drawn) [III-349], for which the IC50 was less than 1 nM.

`Cc1ccc(C(=O)Nc2cccc(C(C)(C)C)c2)cc1Nc1ncnc2cnc(NC3CCOC3)nc12` (stereo not drawn) [III-350] had an IC50 of less than 1 nM. Under `CCN1CCN(c2cc(NC(=O)c3ccc(C)c(Nc4ncnc5cnc(NC6CCOC6)nc45)c3)cc(C(F)(F)F)c2)CC1` (stereo not drawn) [III-351] stands less than 1 nM; under `Cc1ccc(C(=O)Nc2cc(C(C)(C)C)n[nH]2)cc1Nc1ncnc2cnc(NC3CCOC3)nc12` (stereo not drawn) [III-353], less than 1 nM; under `Cc1ccc(C(=O)n2nc(C(C)(C)C)cc2N)cc1Nc1ncnc2cnc(NC3CCOC3)nc12` (stereo not drawn) [III-354], 20 nM. `Cc1ccc(C(=O)Nc2cc(C(F)(F)F)ccn2)cc1Nc1ncnc2cnc(NC3CCOC3)nc12` (stereo not drawn) [III-355]: the 50% inhibitory concentration (IC50) was less than 1 nM. In the case of `COc1ccc(NC(=O)c2ccc(C)c(Nc3ncnc4cnc(NC5CCOC5)nc34)c2)cc1C(F)(F)F` (stereo not drawn) [III-356] it was less than 1 nM; in that of `Cc1ccc(C(=O)Nc2cc(C(C)(C)C)on2)cc1Nc1ncnc2cnc(NC3CCOC3)nc12` (stereo not drawn) [III-357], less than 1 nM. With `COCCNc1ncc2ncnc(Nc3cc(C(=O)Nc4cc(C(C)(C)C)on4)ccc3C)c2n1` [III-358], the IC50 worked out at 1 nM.

For the compound `Cc1ccc(C(=O)Nc2cc(C(C)(C)C)on2)cc1Nc1ncnc2cnc(NCC3CCOC3)nc12` (stereo not drawn) [III-359], the IC50 came out at 2 nM. Take `Cc1ccc(C(=O)Nc2cc(C(C)(C)C)on2)cc1Nc1ncnc2cnc(N(C)CC3CCOC3)nc12` (stereo not drawn) [III-360]: the half-maximal inhibitory concentration (IC50) came to 3 nM. In the case of `Cc1ccc(C(=O)Nc2cc(C(C)(C)C)on2)cc1Nc1ncnc2cnc(NCC3CCCCO3)nc12` (stereo not drawn) [III-361] it was 2 nM. In the case of `COC[C@@H]1CCCN1c1ncc2ncnc(Nc3cc(C(=O)Nc4cc(C(C)(C)C)on4)ccc3C)c2n1` [III-362] it was 3 nM. In the case of `Cc1ccc(C(=O)Nc2cc(C(C)(C)C)on2)cc1Nc1ncnc2cnc(N3CCC[C@H]3CO)nc12` [III-363] it was less than 1 nM. Compound `Cc1ccc(C(=O)Nc2cc(C(C)(C)C)on2)cc1Nc1ncnc2cnc(N(C)C3CCOC3)nc12` (stereo not drawn) [III-365] came in with an IC50 of 1 nM.

Take `Cc1ccc(C(=O)Nc2cc(C(C)(C)C)on2)cc1Nc1ncnc2cnc(N3CC(F)(F)C3)nc12` [III-366]: the IC50 turned out to be 6 nM. In the case of `Cc1cn(-c2ncc3ncnc(Nc4cc(C(=O)Nc5cc(C(C)(C)C)on5)ccc4C)c3n2)cn1` [III-367] it was 2 nM. For `Cc1ccc(C(=O)Nc2cc(C(C)(C)C)on2)cc1Nc1ncnc2cnc(N3C[C@@H](C)O[C@@H](C)C3)nc12` [III-368], the 50% inhibitory concentration (IC50) was 14 nM. Under `Cc1ccc(C(=O)Nc2cc(C(C)(C)C)on2)cc1Nc1ncnc2cnc(N3CCCOCC3)nc12` [III-369] stands 2 nM. Under `Cc1ccc(C(=O)Nc2cc(C(C)(C)C)on2)cc1Nc1ncnc2cnc(N3CCN(CCN4CCOCC4)CC3)nc12` [III-370] stands 1 nM; under `Cc1cc(C(=O)Nc2cc(C(C)(C)C)nn2C)cc(Nc2ncnc3cnc(N4CCOCC4)nc23)c1C` [III-372], 5 nM; under `Cc1cc(C(=O)Nc2cc(C(C)(C)C)nn2C)cc(Nc2ncnc3cnc(N4CCN(C)CC4)nc23)c1C` [III-373], 8 nM. In turn, `Cn1nc(C(C)(C)C)cc1NC(=O)c1cc(Cl)cc(Nc2ncnc3cnc(N4CCCC4)nc23)c1Cl` [III-374] yielded an IC50 of 2000 nM.

With `Cn1nc(C(C)(C)C)cc1NC(=O)c1cc(Cl)cc(Nc2ncnc3cnc(N4CCOCC4)nc23)c1Cl` [III-375], the concentration for half-maximal inhibition (IC50) was determined as 2000 nM.

`Cn1nc(C(C)(C)C)cc1NC(=O)c1cc(Cl)cc(Nc2ncnc3cnc(N4CCOCC4)nc23)c1` [III-376] came in with an IC50 of 7 nM. Compound `Cn1nc(C(C)(C)C)cc1NC(=O)c1cc(Cl)cc(Nc2ncnc3cnc(N4CCCC4)nc23)c1` [III-377] had a half-inhibitory concentration (IC50) of 4 nM. Compared with the last compound, the IC50 is about 1.8-fold lower. Compound `CN1CCN(c2ncc3ncnc(Nc4cc(Cl)cc(C(=O)Nc5cc(C(C)(C)C)nn5C)c4)c3n2)CC1` [III-378] came in with an IC50 of 8 nM. Compared with the last compound, the IC50 is about 2-fold higher. In the case of `CN(C)C1CCN(c2ncc3ncnc(Nc4cc(Cl)cc(C(=O)Nc5cc(C(C)(C)C)nn5C)c4)c3n2)C1` (stereo not drawn) [III-379] it was 6 nM.

The compound `O=C(NC1CCOC1)c1ccc(F)c(Nc2ncnc3cnc(NC4CCOC4)nc23)c1` (stereo not drawn) [III-380] displayed a 50% inhibitory concentration (IC50) of 1400 nM. Under `CC(C)(C)c1cc(NC(=O)c2ccc(F)c(Nc3ncnc4cnc(NC5CCOC5)nc34)c2)no1` (stereo not drawn) [III-381] stands 3 nM. Under `CN1CCN(c2cc(NC(=O)c3ccc(F)c(Nc4ncnc5cnc(N6CCOCC6)nc45)c3)cc(C(F)(F)F)c2)CC1` [III-382] stands less than 1 nM.

On to `CC(C)(C#N)c1cccc(NC(=O)c2ccc(F)c(Nc3ncnc4cnc(N5CCOCC5)nc34)c2)c1` [III-383], for which the IC50 was 4 nM. In other words, the single-digit nanomolar range. In the case of `Cn1nc(C(C)(C)C)cc1NC(=O)c1ccc(F)c(Nc2ncnc3cnc(N4CCOCC4)nc23)c1` [III-384] it was 2 nM; in that of `CN1CCN(c2cc(NC(=O)c3ccc(F)c(Nc4ncnc5cnc(N6CCOCC6)nc45)c3)cc(C(F)(F)F)c2F)CC1` [III-385], 2 nM; in that of `CC(C)(C#N)c1cccc(NC(=O)c2ccc(F)c(Nc3ncnc4cnc(NC5CCOC5)nc34)c2)c1` (stereo not drawn) [III-386], 1 nM. In the case of `Cn1nc(C(C)(C)C)cc1NC(=O)c1ccc(F)c(Nc2ncnc3cnc(NC4CCOC4)nc23)c1` (stereo not drawn) [III-387] it was 2 nM; in that of `CN1CCN(c2cc(NC(=O)c3ccc(F)c(Nc4ncnc5cnc(NC6CCOC6)nc45)c3)cc(C(F)(F)F)c2)CC1` (stereo not drawn) [III-388], less than 1 nM; in that of `CN1CCN(c2cc(NC(=O)c3ccc(F)c(Nc4ncnc5cnc(NC6CCOC6)nc45)c3)cc(C(F)(F)F)c2F)CC1` (stereo not drawn) [III-389], less than 1 nM. In the case of `COc1ccc(NC(=O)c2ccc(F)c(Nc3ncnc4cnc(NC5CCOC5)nc34)c2)cc1C(F)(F)F` (stereo not drawn) [III-390], the half-maximal inhibitory concentration (IC50) was less than 1 nM. In the case of `CC(C)(C)c1cc(NC(=O)c2ccc(F)c(Nc3ncnc4cnc(N5CCOCC5)nc34)c2)[nH]n1` [III-391] it was 1 nM; in that of `CC(C)(C)c1cc(NC(=O)c2ccc(F)c(Nc3ncnc4cnc(NC5CCOC5)nc34)c2)[nH]n1` (stereo not drawn) [III-392], 3 nM; in that of `O=C(Nc1cc(C(F)(F)F)ccn1)c1ccc(F)c(Nc2ncnc3cnc(N4CCOCC4)nc23)c1` [III-393], 1 nM. Under `CN1CCC(CN2CCN(c3ncc4ncnc(Nc5cc(C(=O)Nc6cc(C(C)(C)C)on6)ccc5F)c4n3)CC2)CC1` [III-394] stands 1 nM. As to `COCCN1CCN(c2ncc3ncnc(Nc4cc(C(=O)Nc5cc(C(C)(C)C)on5)ccc4F)c3n2)CC1` [III-395], the IC50 turned out to be 4 nM. As to `CC(C)N1CCN(c2ncc3ncnc(Nc4cc(C(=O)Nc5cc(C(C)(C)C)on5)ccc4F)c3n2)CC1` [III-396], the half-maximal inhibitory concentration (IC50) was 3 nM. Under `CC(C)(C)c1cc(NC(=O)c2ccc(F)c(Nc3ncnc4cnc(N5CCN(CC6CC6)CC5)nc34)c2)no1` [III-397] stands 4 nM. `CCN1CCN(c2ncc3ncnc(Nc4cc(C(=O)Nc5cc(C(C)(C)C)on5)ccc4F)c3n2)CC1` [III-398] returned an IC50 of 1 nM. In the case of `CN(C)C1CCN(c2ncc3ncnc(Nc4cc(C(=O)Nc5cc(C(C)(C)C)on5)ccc4F)c3n2)C1` (stereo not drawn) [III-399], the IC50 was found to be 2 nM. Under `CN1CCC(N(C)c2ncc3ncnc(Nc4cc(C(=O)Nc5cc(C(C)(C)C)on5)ccc4F)c3n2)C1` (stereo not drawn) [III-400] stands 4 nM; under `CN(C)C1CCN(c2ncc3ncnc(Nc4cc(C(=O)Nc5cc(C(C)(C)C)on5)ccc4F)c3n2)CC1` [III-401], 3 nM. Under `COCCN1CCN(c2ncc3ncnc(Nc4cc(C(=O)Nc5ccc(OC)c(C(F)(F)F)c5)ccc4F)c3n2)CC1` [III-402] stands 2 nM.

For the origin of these results see US8653087B2, “Pyrido [5, 4-D] pyrimidines as cell proliferation inhibitors” (Boehringer Ingelheim International GmbH, priority 2008, dated 2014).
